The subject of the test is P388 leukemia ip, CD2F1 mice, survival T/C. In words: NCI In Vivo Anticancer Drug Screen. Data for tumor model P388 Leukemia (intraperitoneal) in CD2F1 (CDF1) mice. Particulars: endpoint: median survival time, higher = longer survival. The essentials:
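Mice carrying the transplanted tumor received test compound or vehicle. Survival was recorded in each group, and the value is the treated-group measurement divided by that of the vehicle-treated control group.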

[1] abbreviates: dose: 50.0 mg/kg/injection, schedule: Q01DX005 (ip), vehicle: Klucel (hydroxypropylcellulose) (HPC).
Where [2] appears, read: dose: 100.0 mg/kg/injection, schedule: Q01DX005 (ip), vehicle: Klucel (hydroxypropylcellulose) (HPC).
The mark [3] stands for this setting: dose: 60.0 mg/kg/injection, schedule: Q01DX005 (ip), vehicle: saline with Tween-80.
Setting [4] is: dose: 120.0 mg/kg/injection, schedule: Q01DX005 (ip), vehicle: saline with Tween-80.
[5] abbreviates: dose: 240.0 mg/kg/injection, schedule: Q01DX005 (ip), vehicle: saline with Tween-80.
Setting [6] is: dose: 50.0 mg/kg/injection, schedule: Q01DX005 (ip), vehicle: saline with Tween-80.
Setting [7] is: dose: 100.0 mg/kg/injection, schedule: Q01DX005 (ip), vehicle: saline with Tween-80.
Where [8] appears, read: dose: 200.0 mg/kg/injection, schedule: Q01DX005 (ip), vehicle: saline with Tween-80.

Structures are written as SMILES. “And” between values parts separate entries of the source, which are not always exact repeats. Equal entries are not always repeated. Inconclusive results and toxic doses are left out.

Consider `O=C(OCc1ccccc1)N(CCF)c1cn(Cc2ccccc2)c(=O)n(Cc2ccccc2)c1=O`, for which the T/C was 93 % of control under setting [1]; 96 % of control under setting [2]; 87 % of control (dose: 200.0 mg/kg/injection, schedule: Q01DX005 (ip), vehicle: Klucel (hydroxypropylcellulose) (HPC)).

Turning to `CSc1nc(NN)c2cnn(C3CCCCO3)c2n1` (centres undefined), the T/C is, setting by setting: (dose: 100.0 mg/kg/injection, schedule: Q04DX002 (ip), vehicle: saline with Tween-80) 100 % of control; (dose: 200.0 mg/kg/injection, schedule: Q04DX002 (ip), vehicle: saline with Tween-80) 96 % of control; (dose: 400.0 mg/kg/injection, schedule: Q04DX002 (ip), vehicle: saline with Tween-80) 94 % of control.

As to `N=C(N)c1cn(C2OC(CO)C(O)C2O)c2ncnc(N)c12` (centres undefined), the T/C by setting is: (dose: 1.33 mg/kg/injection, schedule: Q01DX009 (ip), vehicle: saline) 178 % of control; (dose: 2.0 mg/kg/injection, schedule: Q01DX009 (ip), vehicle: saline) 187 % of control; (dose: 3.0 mg/kg/injection, schedule: Q01DX009 (ip), vehicle: saline) 183 % of control; (dose: 4.5 mg/kg/injection, schedule: Q01DX009 (ip), vehicle: saline) 192 % of control; (dose: 7.5 mg/kg/injection, schedule: Q04DX003 (ip), vehicle: saline) 163 % of control.

For the compound `CC(C)(C)OC(=O)NC(CCCCNC(=O)C(F)(F)F)C(=O)ON1C(=O)CCC1=O` (centres undefined), the T/C was 102 % of control (dose: 50.0 mg/kg/injection, schedule: Q01DX009 (ip), vehicle: saline with Tween-80); 99 % of control (dose: 100.0 mg/kg/injection, schedule: Q01DX009 (ip), vehicle: saline with Tween-80); 106 % of control (dose: 200.0 mg/kg/injection, schedule: Q01DX009 (ip), vehicle: saline with Tween-80).

In the case of `COC(=O)CCC(C)(c1ccc(O)cc1)c1ccc(O)cc1`, the T/C (dose: 100.0 mg/kg/injection, schedule: Q04DX003 (ip), vehicle: saline with Tween-80) is 104 % of control; the T/C (dose: 200.0 mg/kg/injection, schedule: Q04DX003 (ip), vehicle: saline with Tween-80) was 90 % of control; the T/C (dose: 400.0 mg/kg/injection, schedule: Q04DX003 (ip), vehicle: saline with Tween-80) is 90 % of control.

As to `CCC(COC(=O)c1ccc(N(CC)CC)cc1)NC1CCCCC1` (centres undefined), the T/C runs as follows: under setting [3], 111 % of control; under setting [4], 90 % of control.

Turning to `Cc1ccc(S(=O)(=O)OCC2(COS(=O)(=O)c3ccc(C)cc3)CCC2)cc1`, the T/C runs as follows: under setting [3], 102 % of control; under setting [4], 100 % of control; under setting [5], 100 % of control.

With `CC[CH](C)[Sn](=[O])[CH](C)CC` (centres undefined), the T/C is 97 % of control (dose: 0.78 mg/kg/injection, schedule: Q01DX009 (ip), vehicle: saline); 105 % of control (dose: 1.56 mg/kg/injection, schedule: Q01DX009 (ip), vehicle: saline); 113 % of control (dose: 3.12 mg/kg/injection, schedule: Q01DX009 (ip), vehicle: saline).

Turning to `CN(C)CCN1c2ccccc2Sc2ccc3ccccc3c21`, the T/C was 104 % of control (dose: 50.0 mg/kg/injection, schedule: Q01DX005 (ip), vehicle: saline + Tween-80 + alcohol); 107 % of control (dose: 100.0 mg/kg/injection, schedule: Q01DX005 (ip), vehicle: saline + Tween-80 + alcohol); 107 % of control (dose: 200.0 mg/kg/injection, schedule: Q01DX005 (ip), vehicle: saline + Tween-80 + alcohol).

On to `O=C1c2ccccc2C(=O)c2c(Nc3cc4c5c(ccc6c7ccc8c9c(cc(Nc%10cccc%11c%10C(=O)c%10ccccc%10C%11=O)c(c3c56)c97)-c3ccccc3C8=O)C(=O)c3ccccc3-4)cccc21`, for which the T/C was 106 % of control (dose: 12.5 mg/kg/injection, schedule: Q01DX005 (ip), vehicle: Klucel (hydroxypropylcellulose) (HPC)); 101 % of control (dose: 25.0 mg/kg/injection, schedule: Q01DX005 (ip), vehicle: Klucel (hydroxypropylcellulose) (HPC)); 98 % of control and 101 % of control under setting [1]; 96 % of control under setting [2].

As for `O=C(NCN1CCOCC1)Nc1ccccc1`, the T/C under setting [6] was 115 % of control, the T/C under setting [7] was 115 % of control and the T/C under setting [8] was 112 % of control.

For the compound `CSc1nc(NC2OC(COC(C)=O)C(OC(C)=O)C(OC(C)=O)C2OC(C)=O)c(C(=O)CCl)c(=O)n1C` (centres undefined), the T/C runs as follows: under setting [6], 102 % of control; under setting [7], 96 % of control; under setting [8], 92 % of control.

Take `COC(=O)c1cc(Nc2ccccc2)c2ncccc2c1O`: the T/C is 92 % of control under setting [3], 98 % of control under setting [4] and 98 % of control under setting [5].

For the compound `C#CCC(B1OCCO1)B1OCCO1`, the T/C was 100 % of control (dose: 25.0 mg/kg/injection, schedule: Q01DX001 (ip), vehicle: saline) and 90 % of control (dose: 50.0 mg/kg/injection, schedule: Q01DX001 (ip), vehicle: saline).

On to `COc1ccc(C(Nc2ncccn2)c2cc(C(C)(C)C)cc(C(C)(C)C)c2O)cc1` (centres undefined), for which the T/C is 101 % of control (dose: 50.0 mg/kg/injection, schedule: Q01DX005 (ip), vehicle: distilled water + alcohol); 101 % of control (dose: 100.0 mg/kg/injection, schedule: Q01DX005 (ip), vehicle: distilled water + alcohol); 97 % of control (dose: 200.0 mg/kg/injection, schedule: Q01DX005 (ip), vehicle: distilled water + alcohol).

As to `COc1cc(NCCCCCCNC(C)C)c2ncccc2c1`, the T/C is, setting by setting: (dose: 6.25 mg/kg/injection, schedule: Q01DX005 (ip), vehicle: saline with Tween-80) 100 % of control; (dose: 12.5 mg/kg/injection, schedule: Q01DX005 (ip), vehicle: saline with Tween-80) 102 % of control; (dose: 25.0 mg/kg/injection, schedule: Q01DX005 (ip), vehicle: saline with Tween-80) 95 % of control.

In the case of `O=C1C=CC(=Nc2ccc3c(c2)C(=O)c2ccccc2-3)O1`, the T/C under setting [6] was 111 % of control and the T/C under setting [7] was 115 % of control.

As to `O=C(N/N=C/c1cc(Cl)cc(Cl)c1O)c1ccccc1`, the T/C reads like this: (dose: 100.0 mg/kg/injection, schedule: Q01DX001 (ip), vehicle: saline with Tween-80) 96 % of control; (dose: 200.0 mg/kg/injection, schedule: Q01DX001 (ip), vehicle: saline with Tween-80) 98 % of control; (dose: 400.0 mg/kg/injection, schedule: Q01DX001 (ip), vehicle: saline with Tween-80) 103 % of control.

For the compound `O=C(NC1CC1)C(Cl)Cl`, the T/C reads like this: under setting [1], 103 % of control; under setting [2], 99 % of control.

With `Oc1ccc2ccccc2c1/C=N/NC(=S)N/N=C/c1c(O)ccc2ccccc12`, the T/C is, setting by setting: (dose: 0.38 mg/kg/injection, schedule: Q01DX005 (ip), vehicle: saline with Tween-80) 97 % of control; (dose: 0.75 mg/kg/injection, schedule: Q01DX005 (ip), vehicle: saline with Tween-80) 97 % of control; (dose: 1.5 mg/kg/injection, schedule: Q01DX005 (ip), vehicle: saline with Tween-80) 90 % of control and 92 % of control; (dose: 6.0 mg/kg/injection, schedule: Q01DX005 (ip), vehicle: saline with Tween-80) 86 % of control; under setting [7], 96 % of control; under setting [8], 116 % of control.

`COc1ccc(CSC(=S)Nc2ccc(F)c(C)c2)cc1`: the T/C reads like this: (dose: 50.0 mg/kg/injection, schedule: Q01DX009 (ip), vehicle: suspension in saline) 99 % of control; (dose: 100.0 mg/kg/injection, schedule: Q01DX009 (ip), vehicle: suspension in saline) 99 % of control.

In the case of `CN1CCCN(C)C1c1cc(Cl)ccc1O`, the T/C is 90 % of control (dose: 6.25 mg/kg/injection, schedule: Q01DX009 (ip), vehicle: saline sonified); 100 % of control (dose: 12.5 mg/kg/injection, schedule: Q01DX009 (ip), vehicle: saline sonified); 90 % of control (dose: 25.0 mg/kg/injection, schedule: Q01DX009 (ip), vehicle: saline sonified).

As for `COc1ccc2[se]c(C(=O)O)cc2c1`, the T/C (dose: 50.0 mg/kg/injection, schedule: Q01DX009 (ip), vehicle: saline) was 91 % of control and the T/C (dose: 100.0 mg/kg/injection, schedule: Q01DX009 (ip), vehicle: saline) is 91 % of control.

For the compound `COc1ccc(C)cc1N=NC1C(=O)N(C(=O)CC(=O)Nc2ccccc2Cl)N=C1C` (centres undefined), the T/C reads like this: under setting [1], 96 % of control; under setting [2], 95 % of control.

Take `COc1c2c(c3c(c1OC)CCN(CC(c1ccccc1)c1ccccc1)C3)CCC2`: the T/C was 101 % of control (dose: 100.0 mg/kg/injection, schedule: Q04DX002 (ip), vehicle: saline); 100 % of control (dose: 200.0 mg/kg/injection, schedule: Q04DX002 (ip), vehicle: saline); 103 % of control (dose: 400.0 mg/kg/injection, schedule: Q04DX002 (ip), vehicle: saline).

Values taken from PubChem BioAssay AID330 (DTP/NCI, 2004).
